Patent US20230220035A1 (DONG-A ST CO., LTD., published 2023)
Like-named read-outs stand apart in the source and are kept apart here.

Tests used:
[1] = in vivo; conditions: mouse
Text: (§1) ICR mice were used to evaluate the pharmacokinetics in mice of the acylated oxyntomodulin peptide analogs according to the present invention.

[2] = in vivo; conditions: cynomolgus monkey, sc
Text: (§2) Cynomolgus monkeys were used to evaluate the pharmacokinetics in monkeys of the acylated oxyntomodulin peptide analogs according to the present invention.

[3] = target: T1, GLP-1 receptor (Homo sapiens, UniProt P43220); test: Human GLP-1 receptor activation assay (CRE-luciferase); format: cell-based; set-up: host or cells: CHO-K1; conditions: for Emax: CHO-K1, 6 h, read-out: GLP-1 receptor Maximum activation (% vs GLP-1); for EC50: CHO-K1 cells transiently transfected, luciferase, 6 hours, 0.1% BSA
Target sequence in this assay (P43220 24-463): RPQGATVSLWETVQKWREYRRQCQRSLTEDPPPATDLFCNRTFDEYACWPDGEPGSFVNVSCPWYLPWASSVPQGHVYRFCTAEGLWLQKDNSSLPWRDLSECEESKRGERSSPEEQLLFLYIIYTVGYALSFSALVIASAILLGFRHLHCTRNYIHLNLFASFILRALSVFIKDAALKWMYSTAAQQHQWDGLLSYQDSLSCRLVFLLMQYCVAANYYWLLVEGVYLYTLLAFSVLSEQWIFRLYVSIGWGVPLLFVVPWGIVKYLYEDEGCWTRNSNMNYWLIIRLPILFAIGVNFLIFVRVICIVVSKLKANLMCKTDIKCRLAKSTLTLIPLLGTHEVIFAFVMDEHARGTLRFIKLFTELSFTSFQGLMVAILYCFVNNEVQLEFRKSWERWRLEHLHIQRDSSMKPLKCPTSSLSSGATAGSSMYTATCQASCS

[4] = target: T2, glucagon receptor (Homo sapiens, UniProt P47871); test: Human glucagon receptor activation assay (CRE-luciferase); format: cell-based; set-up: host or cells: CHO-K1; conditions: CHO-K1 cells transiently transfected; for Emax: 6 h, relative to glucagon, read-out: GCG receptor Maximum activation (% vs GCG); for EC50: 6 hours, 0.1% BSA, read-out: GCG receptor EC50
Target sequence in this assay (P47871 26-477): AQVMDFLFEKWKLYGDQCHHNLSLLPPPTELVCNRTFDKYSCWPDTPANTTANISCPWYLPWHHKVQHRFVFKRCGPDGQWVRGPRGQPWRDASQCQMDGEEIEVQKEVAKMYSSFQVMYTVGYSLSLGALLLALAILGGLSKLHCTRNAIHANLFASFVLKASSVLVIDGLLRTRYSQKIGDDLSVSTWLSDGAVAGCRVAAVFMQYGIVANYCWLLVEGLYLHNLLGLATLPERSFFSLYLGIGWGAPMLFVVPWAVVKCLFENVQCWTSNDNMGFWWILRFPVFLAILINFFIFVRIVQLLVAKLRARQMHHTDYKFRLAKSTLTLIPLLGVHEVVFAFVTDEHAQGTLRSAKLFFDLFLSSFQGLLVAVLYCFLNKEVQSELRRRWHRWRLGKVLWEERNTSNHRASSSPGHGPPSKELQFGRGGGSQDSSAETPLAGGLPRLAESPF

[5] = Single-dose pharmacokinetic profile in mice; conditions: mouse
Text: as §1

[6] = Single-dose pharmacokinetic profile in monkeys; conditions: cynomolgus monkey, plasma, sc, 100 nmmol/kg, Monkey PK (S.C. half-life), single S.C. dose 100 nmmol/kg
Text: as §2

[7] = target: T1, GLP-1 receptor; conditions: read-out: EC50 to the GLP-1 receptor; from Korean Patent Application No. 2017-0103798 / 2018-0095717; cited from earlier work
Target sequence in this assay (P43220 24-463, species assumed): as the sequence (P43220 24-463) above

[8] = target: T2, glucagon receptor; conditions: from Korean Patent Application No. 2017-0103798 / 2018-0095717; cited from earlier work
Target sequence in this assay (P47871 26-477, species assumed): as the sequence (P47871 26-477) above

[9] = test system: overweight and obese patients; conditions: subcutaneously for 4 weeks, 3 times per day; cited from earlier work
[10] = ICR, sc, Mouse PK (S.C. half-life)

In the case of CCCCCCCCCCCCCCCCCC(=O)N[C@@H](CCC(=O)NCCOCCOCC(=O)NCCOCCOCC(=O)NCCCC[C@H](NC(=O)[C@H](CC(=O)O)NC(=O)[C@H](CO)NC(=O)[C@@H](NC(=O)[C@H](Cc1ccccc1)NC(=O)[C@@H](NC(=O)CNC(=O)[C@H](CCC(N)=O)NC(=O)C(C)(C)NC(=O)[C@@H](N)Cc1c[nH]cn1)[C@@H](C)O)[C@@H](C)O)C(=O)N[C@@H](CO)C(=O)N[C@@H](CCCCN)C(=O)N[C@@H](Cc1ccc(O)cc1)C(=O)N[C@@H](CC(C)C)C(=O)N[C@@H](CC(=O)O)C(=O)NC(C)(C)C(=O)N[C@@H](CCCNC(=N)N)C(=O)N[C@@H](CCCNC(=N)N)C(=O)N[C@@H](C)C(=O)N[C@@H](CCC(N)=O)C(=O)N[C@@H](CC(=O)O)C(=O)N[C@@H](Cc1ccccc1)C(=O)N[C@H](C(=O)N[C@@H](CCC(N)=O)C(=O)N[C@@H](Cc1c[nH]c2ccccc12)C(=O)N[C@@H](CC(C)C)C(=O)N[C@@H](CCSC)C(=O)N[C@@H](CC(N)=O)C(=O)N[C@H](C(=O)N[C@@H](CCCCN)C(=O)N[C@@H](CCC(=O)O)C(=O)N[C@@H](Cc1ccc(O)cc1)C(=O)N[C@@H](CCC(=O)O)C(=O)N[C@@H](CCCCNC(=O)CCCCCCCCCCCCCCC(=O)O)C(=O)N[C@@H](CCC(=O)O)C(=O)N[C@@H](Cc1ccc(O)cc1)C(=O)N[C@@H](CCC(=O)O)C(=O)O)[C@@H](C)O)C(C)C)C(=O)O [Compound 2], the half-life [1, 10] is reported as over 6 h, the half-life ([1]; ICR, sc, half-life in mice) is reported as over 6 h and the half-life ([2]; Monkey PK (S.C. half-life)) is reported as 12 to 18 h. For the same compound, the half-life ([2]; monkey PK half-life) was over 12 h, the Emax [3] was 104% and the EC50 [3] was 0.1 to 1 nM. It also gave an Emax [4] of 100% and an EC50 [4] of 0.1 to 1 nM.
For CCCCCCCCCCCCCCCCCC(=O)N[C@@H](CCC(=O)NCCOCCOCC(=O)NCCOCCOCC(=O)NCCCC[C@H](NC(=O)[C@H](CC(=O)O)NC(=O)[C@H](CO)NC(=O)[C@@H](NC(=O)[C@H](Cc1ccccc1)NC(=O)[C@@H](NC(=O)CNC(=O)[C@H](CCC(N)=O)NC(=O)C(C)(C)NC(=O)[C@@H](N)Cc1c[nH]cn1)[C@@H](C)O)[C@@H](C)O)C(=O)N[C@@H](CO)C(=O)N[C@@H](CCCCN)C(=O)N[C@@H](Cc1ccc(O)cc1)C(=O)N[C@@H](CC(C)C)C(=O)N[C@@H](CC(=O)O)C(=O)NC(C)(C)C(=O)N[C@@H](CCCNC(=N)N)C(=O)N[C@@H](CCCNC(=N)N)C(=O)N[C@@H](C)C(=O)N[C@@H](CCC(N)=O)C(=O)N[C@@H](CC(=O)O)C(=O)N[C@@H](Cc1ccccc1)C(=O)N[C@H](C(=O)N[C@@H](CCC(N)=O)C(=O)N[C@@H](Cc1c[nH]c2ccccc12)C(=O)N[C@@H](CC(C)C)C(=O)N[C@@H](CCSC)C(=O)N[C@@H](CC(N)=O)C(=O)N[C@H](C(=O)N[C@@H](CCCCN)C(=O)N[C@@H](CCC(=O)O)C(=O)N[C@@H](Cc1ccc(O)cc1)C(=O)N[C@@H](CCC(=O)O)C(=O)N[C@@H](CCCCNC(=O)CCCCCCCCCCCCC(=O)O)C(=O)N[C@@H](CCC(=O)O)C(=O)N[C@@H](Cc1ccc(O)cc1)C(=O)N[C@@H](CCC(=O)O)C(=O)O)[C@@H](C)O)C(C)C)C(=O)O [Compound 1], the half-life [1, 10] was over 6 h, the half-life ([1]; ICR, sc, half-life in mice) was over 6 h and the half-life ([2]; Monkey PK (S.C. half-life)) was 12 to 18 h. It also gave a half-life ([2]; monkey PK half-life) of over 12 h, an Emax [3] of 102% and an EC50 [3] of under 0.1 nM. The Emax [4] was 107% and the EC50 [4] was under 0.1 nM.
For CCCCCCCCCCCCCCCC(=O)N[C@@H](CCC(=O)NCCCC[C@H](NC(=O)[C@H](CC(=O)O)NC(=O)[C@H](CO)NC(=O)[C@@H](NC(=O)[C@H](Cc1ccccc1)NC(=O)[C@@H](NC(=O)CNC(=O)[C@H](CCC(N)=O)NC(=O)[C@H](CO)NC(=O)[C@@H](N)Cc1c[nH]cn1)[C@@H](C)O)[C@@H](C)O)C(=O)N[C@@H](CO)C(=O)N[C@@H](CCC(=O)O)C(=O)N[C@@H](Cc1ccc(O)cc1)C(=O)N[C@@H](CC(C)C)C(=O)N[C@@H](CC(=O)O)C(=O)N[C@@H](CO)C(=O)N[C@@H](CCC(=O)O)C(=O)N[C@@H](CCCNC(=N)N)C(=O)N[C@@H](C)C(=O)N[C@@H](CCCNC(=N)N)C(=O)N[C@@H](CC(=O)O)C(=O)N[C@@H](Cc1ccccc1)C(=O)N[C@H](C(=O)N[C@@H](C)C(=O)N[C@@H](Cc1c[nH]c2ccccc12)C(=O)N[C@@H](CC(C)C)C(=O)N[C@@H](CCC(=O)O)C(=O)N[C@@H](C)C(=O)NCC(=O)NCC(=O)O)C(C)C)C(=O)O [MEDI0382], the half-life ([5]; ICR, plasma, sc, 30 nmmol/kg, Mouse PK (S.C. half-life), ICR mice, single S.C. dose 30 nmmol/kg) was under 6 h, the half-life ([5]; in vivo, half-life, pharmacokinetic evaluation in mice (background), mice, dose not given) was 4 h and the half-life [6] was under 6 h.
In the case of CCCCCCCCCCCCCCCCCC(=O)N[C@@H](CCC(=O)NCCOCCOCC(=O)NCCOCCOCC(=O)NCCCC[C@H](NC(=O)[C@H](CC(=O)O)NC(=O)[C@H](CO)NC(=O)[C@@H](NC(=O)[C@H](Cc1ccccc1)NC(=O)[C@@H](NC(=O)CNC(=O)[C@H](CCC(N)=O)NC(=O)C(C)(C)NC(=O)[C@@H](N)Cc1c[nH]cn1)[C@@H](C)O)[C@@H](C)O)C(=O)N[C@@H](CO)C(=O)N[C@@H](CCCCN)C(=O)N[C@@H](Cc1ccc(O)cc1)C(=O)N[C@@H](CC(C)C)C(=O)N[C@@H](CC(=O)O)C(=O)NC(C)(C)C(=O)N[C@@H](CCCNC(=N)N)C(=O)N[C@@H](CCCNC(=N)N)C(=O)N[C@@H](C)C(=O)N[C@@H](CCC(N)=O)C(=O)N[C@@H](CC(=O)O)C(=O)N[C@@H](Cc1ccccc1)C(=O)N[C@H](C(=O)N[C@@H](CCC(N)=O)C(=O)N[C@@H](Cc1c[nH]c2ccccc12)C(=O)N[C@@H](CC(C)C)C(=O)N[C@@H](CCSC)C(=O)N[C@@H](CC(N)=O)C(=O)N[C@H](C(=O)N[C@@H](CCCCN)C(=O)N[C@@H](CCC(=O)O)C(=O)N[C@@H](Cc1ccc(O)cc1)C(=O)N[C@@H](CCC(=O)O)C(=O)N[C@@H](CCCCNC(=O)CCCCCCCCCCCCCCCCC(=O)O)C(=O)N[C@@H](CCC(=O)O)C(=O)N[C@@H](Cc1ccc(O)cc1)C(=O)N[C@@H](CCC(=O)O)C(=O)O)[C@@H](C)O)C(C)C)C(=O)O [Compound 3], the EC50 [7] is listed as under 0.01 nM, the EC50 [8] is listed as under 0.01 nM and the half-life [1, 10] is listed as over 6 h. For the same compound, the half-life ([1]; ICR, sc, half-life in mice) was over 6 h, the half-life ([1]; half-life, pharmacokinetic evaluation in mice (background)) was 3.3 h and the half-life ([2]; Monkey PK (S.C. half-life)) was over 24 h. The half-life ([2]; monkey PK half-life) was over 24 h, the Emax [3] was 98.3% and the EC50 [3] was 0.1 to 1 nM. It also gave an Emax [4] of 98.3% and an EC50 [4] of 0.1 to 1 nM.
For “HSQGTFTSDYSKYLDSRRAQDFVQWLMNTKRNRNNIA (HSQGTFTSDKSKYLDSRRAQDFVQWLMNTKRNRNNIA; listed as Homo sapiens) [oxyntomodulin]”, the “body weight loss on average” value [9] is listed as 2.3 kg.
